Results reported in US20020095695A1, “Tillering promoter for plant and method for tillering promotion of plant” (AJINOMOTO CO., INC., priority 2000, published 2002).

Legend:
Assay type in all cases: in vivo
[1] = system: grass (a European grass: bent grass); test: Effect of proline on hydroponic cultivation of grass (2), proline concentration changed stepwise; settings: 40th day
Protocol: Seedlings of grass (a European grass: bent grass) were raised and divided into six groups of A to F, and hydroponic cultivation was carried out (Table 3 shown below). At that time, inosine was added to the hydroponic media for all the groups in such amount that the concentration became 2 ppm in each hydroponic medium. Group A was the control. In the groups of B to F, proline was applied onto leaf surfaces once a week with the concentration being changed stepwise.
(§1) Furthermore, five average stocks which had not been withered were sampled from each group and examined.

[2] = system: lawn grass (a European grass; bent grass); test: Effect of proline on hydroponic cultivation of lawn grass (1); settings: for Average leaf length / Average root length / Number of leaves per one root / Number of tillering per one root / Total weight of living plants per five roots: 5 roots per group, inosine 2 ppm in hydroponic medium, proline 20 ppm onto leaf surfaces once a week; for tillering promotion (observation): confirmation on the 40th day, inosine 2 ppm in medium, proline 20 ppm foliar once a week
Protocol: Seedlings of grass (a European grass; bent grass) were raised and divided into four groups of A to D, and hydroponic cultivation was carried out (Table 1 shown below). Concerning Groups B and D, inosine was added to each hydroponic medium in such amount that the concentration became 2 ppm. Concerning Groups C and D, proline was applied onto leaf surfaces once a week in an amount of 20 ppm. Group A was the control. […] Furthermore, five average stocks which had not been withered were sampled from each group and examined.

[3] = system: grass (a European grass: bent grass); test: Effects of proline, glutamine, arginine and urea on hydroponic cultivation of grass; settings: for Average leaf length / Average root length / Number of leaves per one root / Number of tillering per one root / Total weight of living plants per five roots / number of leaves and total weight of the living plant, in words: 40th day; for Average leaf length / Average root length / Number of leaves per one root / Number of tillering per one root / Total weight of living plants per five roots: 5 roots per group, proline 20 ppm, others at the same nitrogen amount; for number of leaves and total weight of the living plant, in words: five average stocks per group
Protocol: Seedlings of grass (a European grass: bent grass) were raised and divided into five groups of A to E, and hydroponic cultivation was carried out (Table 2 shown below). Group A was the control. Concerning Group B, proline was applied onto leaf surfaces once a week in an amount of 20 ppm.
as §1

[4] = 0.2% proline foliar once a week, inosine 2 ppm in hydroponic medium
[5] = 2.0% proline foliar once a week, inosine 2 ppm in hydroponic medium
[6] = 20 ppm proline foliar once a week, inosine 2 ppm in hydroponic medium
[7] = 200 ppm proline foliar once a week, inosine 2 ppm in hydroponic medium
[8] = group B, 2 ppm, inosine 2 ppm in hydroponic medium of all groups, foliar once a week

## O=C(O)[C@@H]1CCCN1 [Proline, proline]
[1]; [4]
  Average leaf length: 23 cm
  Average root length: 5 cm
  Number of leaves per one root: 14
  Number of tillering per one root: 3
  Total weight of living plants per five roots: 0.90 g
[1]; [5]
  Average leaf length: 19 cm
  Average root length: 3 cm
  Number of leaves per one root: 11
  Number of tillering per one root: 3
  Total weight of living plants per five roots: 0.40 g
[1]; [6]
  Average leaf length: 24 cm
  Average root length: 4 cm
  Number of leaves per one root: 15
  Number of tillering per one root: 4
  Total weight of living plants per five roots: 0.95 g
[1]; [7]
  Average leaf length: 24 cm
  Average root length: 5 cm
  Number of leaves per one root: 24
  Number of tillering per one root: 4
  Total weight of living plants per five roots: 1.01 g
[1]; Group F (2.0% proline foliar once a week), inosine 2 ppm in medium
  inhibition of the growth or withering (observation): inhibition of the growth or withering was observed
[1]; proline at a concentration of 2 ppm to 0.2%, inosine 2 ppm in medium
  number of leaves and total weight of the living plant, in words: good results
[2]; 40th day
  Average leaf length: 22 cm
  Average root length: 1 cm
  Number of leaves per one root: 16
  Number of tillering per one root: 5
  Total weight of living plants per five roots: 0.53 g
[2]; 40th day, five average stocks per group
  growth (root length, leaf length and number, total weight of the living plant, tillering number), in words: good growth
[2]
  tillering promotion (observation): tillering promotion was clearly observed
[3]; foliar once a week
  Average leaf length: 14 cm
  Average root length: 2 cm
  Number of leaves per one root: 17
  Number of tillering per one root: 5
  Total weight of living plants per five roots: 0.60 g
[3]
  number of leaves and total weight of the living plant, in words: good results

## NC(N)=O [Urea, urea, reference compound]
[3]; foliar once a week
  Average leaf length: 15 cm
  Average root length: 2 cm
  Number of leaves per one root: 6
  Number of tillering per one root: 1
  Total weight of living plants per five roots: 0.34 g
[3]; confirmation on the 40th day, foliar once a week, nitrogen amount equal to 20 ppm proline
  tillering promotion (observation): no tillering promotion was observed

## NC(=O)CC[C@H](N)C(=O)O [Glutamine, glutamine]
[3]; foliar once a week
  Average leaf length: 18 cm
  Average root length: 2 cm
  Number of leaves per one root: 11
  Number of tillering per one root: 3
  Total weight of living plants per five roots: 0.66 g
[3]
  number of leaves and total weight of the living plant, in words: good results

## OC[C@H]1O[C@@H](n2cnc3c(O)ncnc32)[C@H](O)[C@@H]1O [Inosine, inosine]
[1]; [8]
  Average leaf length: 24 cm
  Average root length: 4 cm
  Number of leaves per one root: 14
  Number of tillering per one root: 3
  Total weight of living plants per five roots: 1.04 g
[2]; 40th day
  Average leaf length: 20 cm
  Average root length: 2 cm
  Number of leaves per one root: 7
  Number of tillering per one root: 2
  Total weight of living plants per five roots: 0.40 g
[2]
  tillering promotion (observation): no tillering promotion was observed

## N=C(N)NCCC[C@H](N)C(=O)O [Arginine, arginine]
[3]; foliar once a week
  Average leaf length: 18 cm
  Average root length: 2 cm
  Number of leaves per one root: 9
  Number of tillering per one root: 3
  Total weight of living plants per five roots: 0.51 g
[3]
  number of leaves and total weight of the living plant, in words: good results
